Counter-ions that a name gives are not always drawn. Like-named read-outs stand apart in the source and are kept apart here.
Experiments:
Test in all cases: AK assay 384-well format, Prestwick library screening
P. aeruginosa = format: cell-based, Pseudomonas aeruginosa; conditions: 50 μM final drug concentration; for fold induction at 50 µM: Pseudomonas aeruginosa, 3 h
K. pneumoniae = format: cell-based, Klebsiella pneumoniae; conditions: 50 μM final drug concentration; for fold induction at 50 µM: Klebsiella pneumoniae, 3 h
[1] = system: A. baumannii strain 98-37-09; format: cell-based, Acinetobacter baumannii; conditions: 50 μM final drug concentration; for fold induction at 50 µM: Acinetobacter baumannii, 983709, 3 h
E. faecium = format: cell-based, Enterococcus faecium; conditions: 50 μM final drug concentration; for fold induction at 50 µM: Enterococcus faecium, 3 h
E. cloacae = format: cell-based, Enterobacter cloacae; conditions: 50 μM final drug concentration; for fold induction at 50 µM: Enterobacter cloacae, 3 h
E. coli = format: cell-based, Escherichia coli; conditions: 50 μM final drug concentration; for fold induction at 50 µM: Escherichia coli, 3 h
[2] = system: S. aureus strain USA300-0114; format: cell-based, Staphylococcus aureus; conditions: 50 μM final drug concentration; for fold induction at 50 µM: Staphylococcus aureus, USA300, 3 h
[3] = planktonic, cutoff for positive-scoring molecules 3-fold increase, read-out: AK-based Prestwick Library Screening Results, P. aeruginosa (fold increase in extracellular AK activity)
[4] = planktonic, cutoff for positive-scoring molecules 3-fold increase, read-out: AK-based Prestwick Library Screening Results, K. pneumoniae (fold increase in extracellular AK activity)
[5] = planktonic, cutoff for positive-scoring molecules 3-fold increase, read-out: AK-based Prestwick Library Screening Results, A. baumannii (fold increase in extracellular AK activity)
[6] = planktonic, cutoff for positive-scoring molecules 3-fold increase, read-out: AK-based Prestwick Library Screening Results, E. faecium (fold increase in extracellular AK activity)
[7] = planktonic, cutoff for positive-scoring molecules 3-fold increase, read-out: AK-based Prestwick Library Screening Results, E. cloacae (fold increase in extracellular AK activity)
[8] = planktonic, cutoff for positive-scoring molecules 3-fold increase, read-out: AK-based Prestwick Library Screening Results, E. coli (fold increase in extracellular AK activity)
[9] = planktonic, cutoff for positive-scoring molecules 3-fold increase, read-out: AK-based Prestwick Library Screening Results, S. aureus (fold increase in extracellular AK activity)
[10] = 384-well format, cutoff for positive-scoring molecules 3-fold increase, read-out: AK-based Prestwick Library Screening Results, P. aeruginosa (increase in extracellular AK activity)
[11] = 384-well format, cutoff for positive-scoring molecules 3-fold increase, read-out: AK-based Prestwick Library Screening Results, K. pneumoniae (increase in extracellular AK activity)
[12] = 384-well format, cutoff for positive-scoring molecules 3-fold increase, read-out: AK-based Prestwick Library Screening Results, A. baumannii (increase in extracellular AK activity)
[13] = 384-well format, cutoff for positive-scoring molecules 3-fold increase, read-out: AK-based Prestwick Library Screening Results, E. faecium (increase in extracellular AK activity)
[14] = 384-well format, cutoff for positive-scoring molecules 3-fold increase, read-out: AK-based Prestwick Library Screening Results, E. cloacae (increase in extracellular AK activity)
[15] = 384-well format, cutoff for positive-scoring molecules 3-fold increase, read-out: AK-based Prestwick Library Screening Results, E. coli (increase in extracellular AK activity)
[16] = 384-well format, cutoff for positive-scoring molecules 3-fold increase, read-out: AK-based Prestwick Library Screening Results, S. aureus (increase in extracellular AK activity)
[17] = 384-well format, cutoff for positive-scoring molecules 3-fold increase

Molecule: OC(c1ccccc1)(c1ccccc1)C1CCNCC1 [Azacyclonol]
- fold induction at 50 µM (P. aeruginosa; 384-well format, […], read-out: AK-based Prestwick Library Screening Results, P. aeruginosa (increase in extracellular AK activity)): 0.6
- fold induction at 50 µM (K. pneumoniae; 384-well format, […], read-out: AK-based Prestwick Library Screening Results, K. pneumoniae (increase in extracellular AK activity)): 0.6
- fold induction at 50 µM ([1]; 384-well format, […], read-out: AK-based Prestwick Library Screening Results, A. baumannii (increase in extracellular AK activity)): 0.6
- fold induction at 50 µM (E. faecium; 384-well format, […], read-out: AK-based Prestwick Library Screening Results, E. faecium (increase in extracellular AK activity)): 0.9
- fold induction at 50 µM (E. cloacae; 384-well format, […], read-out: AK-based Prestwick Library Screening Results, E. cloacae (increase in extracellular AK activity)): 0.9
- fold induction at 50 µM (E. coli; 384-well format, […], read-out: AK-based Prestwick Library Screening Results, E. coli (increase in extracellular AK activity)): 0.6
- fold induction at 50 µM ([2]; 384-well format, […], read-out: AK-based Prestwick Library Screening Results, S. aureus (increase in extracellular AK activity)): 0.7

Molecule: NC(=O)c1cnccn1 [Pyrazinamide]
- fold induction at 50 µM (P. aeruginosa; planktonic P. aeruginosa, cutoff for positive-scoring molecules 3-fold increase, read-out: AK-based Prestwick Library Screening Results, P. aeruginosa (increase in extracellular AK activity)): 0.8
- fold induction at 50 µM (K. pneumoniae; planktonic K. pneumoniae, cutoff for positive-scoring molecules 3-fold increase, read-out: AK-based Prestwick Library Screening Results, K. pneumoniae (increase in extracellular AK activity)): 0.8
- fold induction at 50 µM ([1]; planktonic A. baumannii, cutoff for positive-scoring molecules 3-fold increase, read-out: AK-based Prestwick Library Screening Results, A. baumannii (increase in extracellular AK activity)): 0.9
- fold induction at 50 µM (E. faecium; planktonic E. faecium, cutoff for positive-scoring molecules 3-fold increase, read-out: AK-based Prestwick Library Screening Results, E. faecium (increase in extracellular AK activity)): 0.8
- fold induction at 50 µM (E. cloacae; planktonic E. cloacae, cutoff for positive-scoring molecules 3-fold increase, read-out: AK-based Prestwick Library Screening Results, E. cloacae (increase in extracellular AK activity)): 1.2
- fold induction at 50 µM (E. coli; planktonic E. coli, cutoff for positive-scoring molecules 3-fold increase, read-out: AK-based Prestwick Library Screening Results, E. coli (increase in extracellular AK activity)): 0.9
- fold induction at 50 µM ([2]; planktonic S. aureus, cutoff for positive-scoring molecules 3-fold increase, read-out: AK-based Prestwick Library Screening Results, S. aureus (increase in extracellular AK activity)): 0.7

Molecule: C[C@]12CC[C@@H]3c4ccc(OS(=O)(=O)O)cc4CC[C@H]3[C@@H]1CCC2=O [Estropipate]
- fold induction at 50 µM (P. aeruginosa; [3]): 1.1
- fold induction at 50 µM (K. pneumoniae; [4]): 1
- fold induction at 50 µM [1, 5]: 1
- fold induction at 50 µM (E. faecium; [6]): 1
- fold induction at 50 µM (E. cloacae; [7]): 1.3
- fold induction at 50 µM (E. coli; [8]): 1.1
- fold induction at 50 µM [2, 9]: 1.1

Molecule: C[C@]12C=CC(=O)C=C1CC[C@H]1[C@@H]3C[C@@H](O)[C@](O)(C(=O)CO)[C@@]3(C)C[C@H](O)[C@@]12F [Triamcinolone]
- fold induction at 50 µM (P. aeruginosa; [10]): 0.7
- fold induction at 50 µM (K. pneumoniae; [11]): 0.7
- fold induction at 50 µM [1, 12]: 0.9
- fold induction at 50 µM (E. faecium; [13]): 1
- fold induction at 50 µM (E. cloacae; [14]): 1.2
- fold induction at 50 µM (E. coli; [15]): 1
- fold induction at 50 µM [2, 16]: 0.8

Molecule: Cn1nnnc1SCC1=C(C(=O)O)N2C(=O)[C@@H](NC(=O)[C@H](O)c3ccccc3)[C@H]2SC1 [Cefamandole sodium salt]
- fold induction at 50 µM (P. aeruginosa; [3]): 0.7
- fold induction at 50 µM (K. pneumoniae; [4]): 2.3
- fold induction at 50 µM [1, 5]: 0.6
- fold induction at 50 µM (E. faecium; [6]): 0.9
- fold induction at 50 µM (E. cloacae; [7]): 0.9
- fold induction at 50 µM (E. coli; [8]): 10.5
- fold induction at 50 µM [2, 9]: 1.3

Molecule: Iproniazide phosphate
- AK-based Prestwick Library Screening Results, P. aeruginosa (increase in extracellular AK activity) (P. aeruginosa; [17]): 0.7
- AK-based Prestwick Library Screening Results, K. pneumoniae (increase in extracellular AK activity) (K. pneumoniae; [17]): 0.7
- AK-based Prestwick Library Screening Results, A. baumannii (increase in extracellular AK activity) [1, 17]: 0.7
- AK-based Prestwick Library Screening Results, E. faecium (increase in extracellular AK activity) (E. faecium; [17]): 1.0
- AK-based Prestwick Library Screening Results, E. cloacae (increase in extracellular AK activity) (E. cloacae; [17]): 0.8
- AK-based Prestwick Library Screening Results, E. coli (increase in extracellular AK activity) (E. coli; [17]): 0.8
- AK-based Prestwick Library Screening Results, S. aureus (increase in extracellular AK activity) [2, 17]: 1.0

Molecule: CN1CCOC(c2ccccc2)c2ccccc2C1 (stereo not drawn) [Nefopam hydrochloride]
- fold induction at 50 µM (P. aeruginosa; planktonic P. aeruginosa, 384-well, cutoff for positive-scoring molecules 3-fold increase, read-out: AK-based Prestwick Library Screening Results: P. aeruginosa (increase in extracellular AK activity)): 1.2
- fold induction at 50 µM (K. pneumoniae; planktonic K. pneumoniae, 384-well, cutoff for positive-scoring molecules 3-fold increase, read-out: AK-based Prestwick Library Screening Results: K. pneumoniae (increase in extracellular AK activity)): 0.9
- fold induction at 50 µM ([1]; planktonic A. baumannii, 384-well, cutoff for positive-scoring molecules 3-fold increase, read-out: AK-based Prestwick Library Screening Results: A. baumannii (increase in extracellular AK activity)): 1.4
- fold induction at 50 µM (E. faecium; planktonic E. faecium, 384-well, cutoff for positive-scoring molecules 3-fold increase, read-out: AK-based Prestwick Library Screening Results: E. faecium (increase in extracellular AK activity)): 1
- fold induction at 50 µM (E. cloacae; planktonic E. cloacae, 384-well, cutoff for positive-scoring molecules 3-fold increase, read-out: AK-based Prestwick Library Screening Results: E. cloacae (increase in extracellular AK activity)): 1.4
- fold induction at 50 µM (E. coli; planktonic E. coli, 384-well, cutoff for positive-scoring molecules 3-fold increase, read-out: AK-based Prestwick Library Screening Results: E. coli (increase in extracellular AK activity)): 1.2
- fold induction at 50 µM ([2]; planktonic S. aureus, 384-well, cutoff for positive-scoring molecules 3-fold increase, read-out: AK-based Prestwick Library Screening Results: S. aureus (increase in extracellular AK activity)): 1.1

Molecule: COC(=O)[C@H]1[C@H]2C[C@@H]3c4[nH]c5cc(OC)ccc5c4CCN3C[C@H]2C[C@@H](OC(=O)/C=C/c2cc(OC)c(OC)c(OC)c2)[C@@H]1OC [Rescinnamin]
- AK-based Prestwick Library Screening Results, P. aeruginosa (increase in extracellular AK activity) (P. aeruginosa; planktonic P. aeruginosa, cutoff for positive-scoring molecules 3-fold increase): 0.4
- AK-based Prestwick Library Screening Results, K. pneumoniae (increase in extracellular AK activity) (K. pneumoniae; planktonic K. pneumoniae, cutoff for positive-scoring molecules 3-fold increase): 0.6
- AK-based Prestwick Library Screening Results, A. baumannii (increase in extracellular AK activity) ([1]; planktonic A. baumannii, cutoff for positive-scoring molecules 3-fold increase): 1.1
- AK-based Prestwick Library Screening Results, E. faecium (increase in extracellular AK activity) (E. faecium; planktonic E. faecium, cutoff for positive-scoring molecules 3-fold increase): 1.0
- AK-based Prestwick Library Screening Results, E. cloacae (increase in extracellular AK activity) (E. cloacae; planktonic E. cloacae, cutoff for positive-scoring molecules 3-fold increase): 0.6
- AK-based Prestwick Library Screening Results, E. coli (increase in extracellular AK activity) (E. coli; planktonic E. coli, cutoff for positive-scoring molecules 3-fold increase): 0.7
- AK-based Prestwick Library Screening Results, S. aureus (increase in extracellular AK activity) ([2]; planktonic S. aureus, cutoff for positive-scoring molecules 3-fold increase): 0.3

Molecule: Clc1ccc(C(Cn2ccnc2)OCc2c(Cl)cccc2Cl)c(Cl)c1 (stereo not drawn) [Isoconazole]
- fold induction at 50 µM (P. aeruginosa; [10]): 1.3
- fold induction at 50 µM (K. pneumoniae; [11]): 1.4
- fold induction at 50 µM [1, 12]: 5.6
- fold induction at 50 µM (E. faecium; [13]): 1.8
- fold induction at 50 µM (E. cloacae; [14]): 1.7
- fold induction at 50 µM (E. coli; [15]): 1.8
- fold induction at 50 µM [2, 16]: 5.2

Source: patent US10004701B2, “Methods and compositions for treating infection” (UNIVERSITY OF ROCHESTER, priority 2012, dated 2018)
